# Measurements from ChEMBL document CHEMBL2311501, “Discovery and preliminary structure-activity relationship analysis of 1,14-sperminediphenylacetamides as potent and selective antimalarial lead compounds” (Bioorg Med Chem Lett, 2013).
# What was measured:
# Leishmania donovani = test: Antiprotozoal activity against amastigote/ axenic stage of Leishmania donovani MHOM-ET-67/L82 after 72 hrs by Alamar blue assay; format: functional, organism-based; settings: MHOM-ET-67/L82, 72 h
# Trypanosoma cruzi = test: Antiprotozoal activity against Trypanosoma cruzi Tulahuen C4 amastigotes after 96 hrs; format: functional, organism-based; settings: Tulahuen C4, 96 h
# L6 [1] = test: Cytotoxicity against rat L6 cells after 72 hrs by Alamar blue assay; format: cell-based; settings: L6, 72 h
# Plasmodium falciparum = test: Antiprotozoal activity against erythrocytic stages of Plasmodium falciparum K1 by [3H]hypoxanthine incorporation assay; format: functional, organism-based
# [2] = tested on: Trypanosoma brucei rhodesiense; test: Antiprotozoal activity against Trypanosoma brucei rhodesiense STIB 900 after 72 hrs by Alamar blue assay; format: functional, organism-based; settings: STIB 900, 72 h
# L6 [3] = test: Cytotoxicity against rat L6 cells at 10 uM after 72 hrs by Alamar blue assay; format: cell-based; settings: l6, 72 h
Structure (SMILES),IC50 (Leishmania donovani) [µM],IC50 (Trypanosoma cruzi) [µM],IC50 (L6 [1]) [µM],IC50 (Plasmodium falciparum) [µM],IC50 [2] [µM],Activity (L6 [3])
COc1cc(CC(=O)NCCN(C)C)ccc1O,> 250,> 250,> 250,> 14,170,–
O=C(Cc1cccc(O)c1)NCCCNCCCCNCCCNC(=O)Cc1cccc(O)c1,> 130,> 130,> 130,0.17,87,Non-toxic
O=C(Cc1ccc(O)c(O)c1)NCCCNCCCCNCCCNC(=O)Cc1ccc(O)c(O)c1,> 120,> 120,85,4.8,3.2,Non-toxic
COc1cc(CC(=O)NCCCNCCNCCCNC(=O)Cc2ccc(O)c(OC)c2)ccc1O,> 120,> 120,> 120,> 6.8,120,–
COc1cc([C@@H]2c3cc4c(cc3[C@H](O)[C@H]3COC(=O)[C@H]23)OCO4)cc(OC)c1OC [PODOFILOX],–,–,0.019,–,–,–
O=C(Cc1ccc(O)c(O)c1)NCCCNCCNC(=O)Cc1ccc(O)c(O)c1,> 170,> 170,140,> 9.4,7.5,Non-toxic
COc1cc(CC(=O)NCCCCNCCCNC(=O)Cc2ccc(O)c(OC)c2)ccc1O,> 150,> 150,> 150,> 8.5,150,–
O=C(Cc1ccccc1)NCCCNCCCCNCCCNC(=O)C(F)(F)F,–,–,110,8,–,–
O=C(Cc1ccccc1)NCCCNCCCCNCCCNC(=O)Cc1ccccc1,90,> 140,> 140,0.14,96,Non-toxic
COc1cc(CC(=O)NCCCCNC(=O)Cc2ccc(O)c(OC)c2)ccc1O,> 220,> 220,> 220,> 12,210,–
O=C(Cc1ccccc1O)NCCCNCCNCCCNC(=O)Cc1ccccc1O,> 130,> 130,> 130,0.61,49,Non-toxic
COc1cc(CC(=O)NCCCNCCCCNCCCNC(=O)Cc2ccc(O)c(OC)c2)ccc1O,> 120,> 120,> 120,0.89,78,Non-toxic
O=C(Cc1ccc(O)c(O)c1)NCCCCNCCCNC(=O)Cc1ccc(O)c(O)c1,> 160,> 160,97,7.9,5.9,Non-toxic
COc1ccc(OC)c(CC(=O)NCCCNCCCCNCCCNC(=O)Cc2cc(OC)ccc2OC)c1,35,31,88,0.019,38,Non-toxic
COc1cc(CC(=O)NCCCOCCOCCOCCCNC(=O)Cc2ccc(O)c(OC)c2)ccc1O,150,> 160,> 160,> 9.1,110,–
COc1cc(CC(=O)NCCCNCCNC(=O)Cc2ccc(O)c(OC)c2)ccc1O,> 160,> 160,> 160,> 8.9,110,–
O=C(Cc1ccc(O)c(O)c1)NCCCOCCOCCOCCCNC(=O)Cc1ccc(O)c(O)c1,> 170,> 170,96,> 9.6,5.2,–
O=C(Cc1ccccc1)NCCCOCCOCCOCCCNC(=O)Cc1ccccc1,> 200,> 200,> 200,> 11,63,–
O=C(Cc1ccc(O)c(O)c1)NCCCCNC(=O)Cc1ccc(O)c(O)c1,> 230,> 230,130,> 13,3.3,–
NCCCNCCCCNCCCNC(=O)Cc1ccccc1,–,–,94,35,–,–
O=C(Cc1cccc(O)c1)NCCCNCCNC(=O)Cc1cccc(O)c1,> 180,> 180,> 180,> 10,120,–
O=C(Cc1ccccc1O)NCCCNCCCCNCCCNC(=O)Cc1ccccc1O,110,> 130,> 130,0.0086,51,Non-toxic
O=C(Cc1ccccc1)NCCCCNC(=O)Cc1ccccc1,> 280,> 280,> 280,> 15,110,–
COc1cc(CC(=O)NCCN2CCOCC2)ccc1O,> 220,> 220,210,> 12,150,–
O=C(Cc1ccc(O)cc1)NCCCCNCCCNC(=O)Cc1ccc(O)cc1,> 170,> 170,> 170,3.6,120,–
O=C(Cc1ccc(O)cc1)NCCCNCCCCNCCCNC(=O)Cc1ccc(O)cc1,> 130,> 130,130,0.14,86,Non-toxic
